# In PubChem BioAssay AID1615 (Sanford-Burnham Center for Chemical Genomics, 2009):
# Test system: aqueous buffer solubility, UV absorbance, 18 h equilibrium
# Experiment: equilibrium solubility at several pH values – biophysical, UV absorbance, pH 5.0, 6.2, 7.4, ADME assay, late-stage follow-up (AID 1615)
# Conditions: at 300 µM, stronger effect = higher value
smiles,measurement,setting,value
C=CCn1c(SCC(=O)c2ccc(O)c(O)c2)nnc1-c1ccccc1OC,solubility,,18 µg/mL
same,solubility,measured here: solubility at pH 5.0,8.4 µg/mL
same,solubility,measured here: solubility at pH 6.2,8.4 µg/mL
